Measured values taken from US4578400A, “Therapeutic composition and method for treatment of cardiovascular diseases” (priority 1982, dated 1986).

Experiments:
[1] = test system: chloroform-induced arrhythmia (ventricular fibrillation); test: Effect on chloroform-induced arrhythmia; format: in vivo, male ddy mice; details: for Percent occurrence of ventricular fibrillation: 15 min before chloroform, control 100
Description: When they stopped breathing, they were thoracotomized to examine the occurrence of ventricular fribrillation. The results are noted in Table 2 as percent occurrence of ventricular fibrillation.

[2] = test system: ouabain induced arrhythmia; test: Effect on ouabain induced arrhythmia; format: in vivo, male hartley guinea pigs; details: for relative time for extrasystole to occur / relative time for cardiac arrest to occur / relative time for ventricular fibrillation to occur: control = 100
Description: Effect on ouabain induced arrhythmia
The procedure described in Matsubara et al. (Folia Pharmacologica Japonica, 72, 557-571, 1976) was followed.
Male hartley guinea pigs were divided into groups of 8 animals and anesthetized with intraperitoneal urethane. Three groups were orally administered 5--HDA--Na, 5--HDAE and 5--HDA--DHP dissolved in distilled water. Another group was intravenously injected with 5--HDA--Na dissolved in physiological saline. One group was orally administered δ-DL emulsified in 5% aqueous arabic gum solution. One group was injected intravenously with lidocaine dissolved in physiological saline. For the respective routes of administration, control groups were administered the solvents used in administration of the test compounds. Thirty minutes after the oral administration and one minute after the intravenous injection, ouabain was infused into the jugular vein at a rate of 5 μg/kg/min until extrasystole, ventricular fibrillation and cardiac arrest appeared on a standard limb lead II of ECG. The results are shown in Table 3, with the time necessary for the respective symptoms to occur in the control groups taken as 100.

[3] = target: T1, 3-hydroxy-3-methylglutaryl coenzyme A (HMG-Co A) reductase (Rattus norvegicus, UniProt P51639); test: Inhibition of HMG-CoA reductase activity; format: biochemical, rat (liver microsome); details: read-out: IC30 (amount necessary for inhibiting the enzymatic activity by 30%)
T1 sequence (P51639 1-887): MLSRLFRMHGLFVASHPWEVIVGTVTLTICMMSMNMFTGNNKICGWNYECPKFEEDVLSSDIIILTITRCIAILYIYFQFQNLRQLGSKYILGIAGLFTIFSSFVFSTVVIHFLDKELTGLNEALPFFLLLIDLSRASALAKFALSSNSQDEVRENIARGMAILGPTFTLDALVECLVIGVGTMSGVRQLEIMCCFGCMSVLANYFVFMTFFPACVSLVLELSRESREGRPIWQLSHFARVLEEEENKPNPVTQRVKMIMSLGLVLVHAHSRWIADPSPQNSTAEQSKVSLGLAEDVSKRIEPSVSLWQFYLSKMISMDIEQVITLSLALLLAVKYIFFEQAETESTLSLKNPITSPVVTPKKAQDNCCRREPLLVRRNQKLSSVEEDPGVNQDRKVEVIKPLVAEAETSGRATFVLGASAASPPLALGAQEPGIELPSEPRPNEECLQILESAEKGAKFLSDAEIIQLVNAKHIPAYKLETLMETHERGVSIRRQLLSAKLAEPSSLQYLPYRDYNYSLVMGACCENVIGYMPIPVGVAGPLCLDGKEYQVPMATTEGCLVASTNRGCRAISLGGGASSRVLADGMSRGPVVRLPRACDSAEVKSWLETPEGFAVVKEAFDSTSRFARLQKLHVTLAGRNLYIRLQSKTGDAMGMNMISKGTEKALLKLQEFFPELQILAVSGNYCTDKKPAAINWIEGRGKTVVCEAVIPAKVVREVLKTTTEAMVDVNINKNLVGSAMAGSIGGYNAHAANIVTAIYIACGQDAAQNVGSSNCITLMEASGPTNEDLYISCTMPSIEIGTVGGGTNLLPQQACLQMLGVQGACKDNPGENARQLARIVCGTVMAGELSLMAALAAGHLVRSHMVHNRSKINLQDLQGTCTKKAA
Description: Inhibition of the activity of 3-hydroxy-3-methylglutaryl coenzyme A (HMG-Co A) reductase

[4] = Lowering serum lipid levels in Triton-induced hyperlipidemic rats; format: in vivo, male Wistar rats
Protocol: After 10 hours, blood samples were drawn to determine the serum levels of total cholesterol and triglyceride.

[5] = Lowering serum cholesterol levels in hyperlipidemic rabbits; format: in vivo, male Japanese white rabbits; details: 100 mg/kg oral daily for 7 days
Description: Male Japanese white rabbits weighing about 2.5 kg were fed on a solid diet containing 1% cholesterol (RC-4, Nippon Crea Co., Ltd.) for 10 weeks until hypercholesterolemia fully developed. The rabbits were then divided into groups of 5 animals, and 5--HDA--Na or δ-DL was orally admininistered daily for 7 days, either as a solution or as an emulsion in 5% aqueous arabic gum. Three hours after the last administration, blood was drawn to determine the serum level of cholesterol.

Acute toxicity = details: one week observation
Description: Male ddy mice weighing about 25 g were divided into groups of 10 animals and orally administered once with 3 g/kg of 5--HDA, 5--HDA--Na, 5--HDAE, 5--HDA--DHP or δ-DL, or intraperitoneally injected once with 1 g/kg of said compounds.

[6] = Solubility (physicochemical properties, Table 1)
[7] = 100 mg/kg oral, four times, against control, 10 hours after Triton WR-1339, *P < 0.05

CCCCCC(O)CCCC(=O)[O-].[Na+] (stereo not drawn)
Percent occurrence of ventricular fibrillation ([1]; 50 mg/kg, oral): 50 | anti-arrhythmic potency compared with lidocaine (in words) ([1]; 100 mg/kg oral vs lidocaine 10 mg/kg i.p.): more potent than lidocaine | anti-arrhythmic effects (in words) ([1]; 100 mg/kg, oral): significant anti-arrhythmic effects | Percent occurrence of ventricular fibrillation ([1]; 100 mg/kg, oral, *P < 0.05): 30 | relative time for extrasystole to occur ([2]; i.v., 20 mg/kg): 146 | relative time for cardiac arrest to occur ([2]; i.v., 20 mg/kg, *P < 0.05): 132 | relative time for ventricular fibrillation to occur ([2]; i.v., 20 mg/kg, *P < 0.05): 140 | relative time for extrasystole to occur ([2]; oral, 50 mg/kg): 118 | relative time for cardiac arrest to occur ([2]; oral, 50 mg/kg, *P < 0.05): 134 | relative time for ventricular fibrillation to occur ([2]; oral, 50 mg/kg, *P < 0.05): 126 | relative time for extrasystole to occur ([2]; oral, 100 mg/kg): 160 | relative time for ventricular fibrillation to occur ([2]; oral, 100 mg/kg, *P < 0.05): 144 | relative time for cardiac arrest to occur ([2]; oral, 100 mg/kg, *P < 0.05 where starred): 136 | antiarrhythmic effects (in words) ([2]; ouabain induced arrhythmia): significant antiarrhythmic effects | IC30 [3]: 100 µM | inhibition rate, total cholesterol (serum) [4, 7]: 20% | inhibition rate, triglyceride (serum) [4, 7]: 15% | antilipidemic effects compared with Clofibrate (in words) ([4]; 100 mg/kg, oral): equipotent to or stronger than the effect of the known anti-lipidemic agent, Clofibrate | serum level of total cholesterol (in words) [5]: lowered the serum level of total cholesterol | Total serum cholesterol ([5]; 3 h after last administration, control 1,394, *P < 0.05): 1,165 mg/dl | acute toxicity: abnormality (Acute toxicity; 1 g/kg intraperitoneal once): no abnormality occurred | acute toxicity: death (Acute toxicity; 1 g/kg intraperitoneal once): no animal died | acute toxicity: abnormality (Acute toxicity; 3 g/kg oral once): no abnormality occurred | acute toxicity: death (Acute toxicity; 3 g/kg oral once): no animal died | solubility in acetone ([6]; acetone): easily soluble | solubility in benzene ([6]; benzene): sparingly | solubility in chloroform ([6]; chloroform): sparingly | solubility in hexane ([6]; hexane): sparingly | solubility in methanol ([6]; methanol): easily soluble | solubility in water ([6]; water): easily soluble
